In brackets after ≈: the same amount, converted by molar mass. Where two headings read alike, the source gives them in different places.
Experiments:
[1] = system: Streptococcus pneumoniae 1/1; assay: MIC against Streptococcus pneumoniae 1/1; assay type: cell-based; details: Table 2, Streptococcus pneumoniae 1/1, trimethoprim- and penicillin-resistant, serotype 6, clinical isolate; for MIC: read-out: MIC Sp1/1
[2] = system: Staphylococcus aureus 101; assay: MIC against Staphylococcus aureus 101; assay type: cell-based; details: Table 2, Staphylococcus aureus 101, MRSA- and trimethoprim-resistant, clinical isolate; for MIC: read-out: MIC Sa101
[3] = molecular target: T1, purified DHFR of strain Sp1/1 of Streptococcus pneumoniae (Streptococcus pneumoniae serotype 4, UniProt Q54801); assay type: biochemical; details: Table 2; IC50 against purified DHFR of strain Sp1/1
T1 sequence (Q54801 1-168 I100L): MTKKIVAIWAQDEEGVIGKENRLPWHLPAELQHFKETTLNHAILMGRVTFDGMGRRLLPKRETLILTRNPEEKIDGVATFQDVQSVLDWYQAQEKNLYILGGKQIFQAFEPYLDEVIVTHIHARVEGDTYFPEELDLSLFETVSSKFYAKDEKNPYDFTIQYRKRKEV

[4] = molecular target: purified DHFR of strain 157/4696 of Staphylococcus aureus (Staphylococcus aureus, UniProt P13955); assay: biochemical
purified DHFR of strain 157/4696 of Staphylococcus aureus, sequence (P13955 whole entry): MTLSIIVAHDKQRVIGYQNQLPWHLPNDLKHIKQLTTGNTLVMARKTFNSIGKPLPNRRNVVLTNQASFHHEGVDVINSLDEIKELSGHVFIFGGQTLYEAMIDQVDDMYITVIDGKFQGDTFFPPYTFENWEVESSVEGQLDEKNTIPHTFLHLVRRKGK

SMILES: CCOc1cc(Cc2cnc(N)nc2N)cc(OCC)c1-c1ccc(OC)cc1 [Example 05-b, 5-(2,6-Diethoxy-4′-methoxy-biphenyl-4-ylmethyl)-pyrimidine-2,4-diamine]
- MIC [1]: 4 µg/mL (≈ 10.1 µM)
- MIC [2]: 16 µg/mL (≈ 40.6 µM)
- IC50 [3]: 0.04 µM
- IC50 [4]: 1.5 µM

SMILES: CCOc1cc(Cc2cnc(N)nc2N)cc(OCC(C)(C)COC)c1-c1ccc(O)cc1 [Example 08-a, 4′-(2,4-Diamino-pylimidin-5-ylmethyl)-6′-ethoxy-2′-(3-methoxy-2,2-dimethyl-propoxy)-biphenyl-4-ol]
- MIC [1]: 2 µg/mL (≈ 4.42 µM)
- MIC [2]: 8 µg/mL (≈ 17.7 µM)
- IC50 [3]: 0.018 µM
- IC50 [4]: 1.7 µM

SMILES: CCOc1cc(Cc2cnc(N)nc2N)cc(OS(=O)(=O)N2CCCCC2)c1-c1ccc(O)cc1 [Example 20-b, Piperidine-1-sulphonic acid 4-(2,4-diamino-pyrimidin-5-ylmethyl)-6-ethoxy-4′-hydroxy-biphenyl-2-yl ester]
- MIC [1]: 0.5 µg/mL (≈ 1 µM)
- MIC [2]: 1 µg/mL (≈ 2 µM)
- IC50 [3]: 0.0018 µM
- IC50 [4]: 0.14 µM

SMILES: CCOc1cc(Cc2cnc(N)nc2N)cc(OS(=O)(=O)N(C)CC)c1-c1ccc(O)cc1 [Example 20-g, N-Ethyl-N-methyl-sulphamic acid 4-(2,4-diamino-pyrimidin-5-ylmethyl)-6-ethoxy-4′-hydroxy-biphenyl-2-yl ester]
- MIC [1]: 1 µg/mL (≈ 2.11 µM)
- MIC [2]: 2 µg/mL (≈ 4.22 µM)
- IC50 [3]: 0.0072 µM
- IC50 [4]: 0.16 µM

SMILES: CCOc1cc(Cc2cnc(N)nc2N)cc(OCC)c1-c1cccc(OCCOC)c1 [Example 50-, 5-[2,6-Diethoxy-3′-(2-methoxy-ethoxy)-biphenyl-4-ylmethyl]-pyrimidine-2,4-diamine]
- MIC [1]: 4 µg/mL (≈ 9.12 µM)
- MIC [2]: 8 µg/mL (≈ 18.2 µM)
- IC50 [3]: 0.032 µM
- IC50 [4]: 10 µM

SMILES: CCOc1cc(Cc2cnc(N)nc2N)cc(OS(=O)(=O)C(C)C)c1-c1ccc(CN(C)C)c(N)c1 [Example 33-f, Propane-2-sulphonic acid 3′-amino-4-(2,4-diamino-pyrimidin-5-ylmethyl)-6-ethoxy-4′-dimethylaminomethyl-biphenyl-2-yl ester]
- MIC [1]: 8 µg/mL (≈ 15.5 µM)
- MIC [2]: 2 µg/mL (≈ 3.89 µM)
- IC50 [3]: 0.089 µM
- IC50 [4]: 0.042 µM

SMILES: CCOc1cc(Cc2cnc(N)nc2N)cc(OCC2CCC2)c1-c1ccc2c(c1)OCO2 [Example 10-a, 5-(4-Benzof[1.3]dioxol-5-yl-3-cyclobutylmethoxy-5-ethoxy-benzyl)-pyrimidine-2,4-diamine]
- MIC [1]: 8 µg/mL (≈ 17.8 µM)
- MIC [2]: 8 µg/mL (≈ 17.8 µM)
- IC50 [3]: 0.034 µM
- IC50 [4]: 1.4 µM

SMILES: CCOc1cc(Cc2cnc(N)nc2N)cc(OCC)c1-c1ccc(N)c(C#N)c1 [Example 04-h, 4-Amino-4′-(2,4-diamino-pyrimidin-5-ylmethyl)-2′,6′diethoxy-biphenyl-3-carbonitrile]
- MIC [1]: 2 µg/mL (≈ 4.94 µM)
- MIC [2]: 4 µg/mL (≈ 9.89 µM)
- IC50 [3]: 0.042 µM
- IC50 [4]: 1 µM

SMILES: CCOc1cc(Cc2cnc(N)nc2N)cc(OS(=O)(=O)N2CCCC2)c1-c1cccc(N)c1 [Example 19-c, Pyrrolidine-1-sulphonic acid 3′-amino-4-(2,4-diamino-pyrimidin-5-vlmethyl)-6-ethoxy-biphenyl-2-yl ester]
- MIC [1]: 1 µg/mL (≈ 2.06 µM)
- MIC [2]: 2 µg/mL (≈ 4.13 µM)
- IC50 [3]: 0.019 µM
- IC50 [4]: 0.066 µM

SMILES: CCOc1cc(Cc2cnc(N)nc2N)cc(OS(=O)(=O)C(C)C)c1-c1ccc(CN2CCOCC2)c(N)c1 [Example 33-d, Propane-2-sulphonic acid 3′-amino-4-(2,4-diamino-pyrimidin-5-ylmethyl)-6-ethoxy-4′-morpholinemethyl-4-ylmethyl-biphenyl-2-yl ester]
- MIC Sp1/1 [1]: 2 µg/mL (≈ 3.59 µM)
- MIC Sa101 [2]: 2 µg/mL (≈ 3.59 µM)
- IC50 [3]: 0.0091 µM
- IC50 ([4]; Table 2, IC50 against purified DHFR of strain 157/4696 (highly trimethoprim-resistant; clinical isolate), read-out: DHFR Sa1): 0.039 µM

SMILES: CCOc1cc(Cc2cnc(N)nc2N)cc(OS(=O)(=O)N(C)C)c1-c1ccc(OC)cc1 [Example 21-, Dimethylsulphamic acid 4-(2,4-diamino-pyrimidin-5-ylmethyl)-6-ethoxy-4′-methoxy-biphenyl-2-yl ester]
- MIC [1]: 2 µg/mL (≈ 4.22 µM)
- MIC [2]: 2 µg/mL (≈ 4.22 µM)
- IC50 [3]: 0.052 µM
- IC50 [4]: 0.13 µM

Reference: patent publication US6821980B1, “Substituted 5-benzyl-2,4-diaminopyrimidines” (Basilea Pharmaceutica AG, priority 1999, dated 2004)
